# Measured values taken from US20220183287A1, “METHODS FOR KILLING PESTS” (The United States of America, as represented by the …, priority 2020, published 2022).
# Marks after values point to notes of the source that are not given here.
# Assays:
# [1] = test system: M. incognita second-stage juveniles; assay: Microwell assay: previously hatched J2 immersed in compounds, activity and viability; conditions: for % Active Day 1 / % Active Day 2: 0.1%, previously hatched J2 in aqueous solution; for viability at 0.1 % / mortality at 0.1 %: Meloidogyne incognita, 72 h; for viability at 0.1 %: read-out: % Viable Day 3 rinsed; for mortality at 0.1 %: read-out: nonviable (killed) J2
# Experimental: Nematode cultures: As described in Meyer et al. (Meyer, S. L. F., et al., Nematropica, 46: 85-96 (2016)), M. incognita race 1 (originally isolated in Maryland) was maintained in a greenhouse (24° to 29° C.; natural and supplemental lighting combined for a 16-h daylength) on susceptible cayenne pepper (Capsicum annuum) TA-136′ plants. All greenhouse experiments described herein were conducted under the same conditions. Two to three months after pepper plant inoculation, egg masses were picked from roots. Eggs were separated by 5 min immersion in 0.6% sodium hypochlorite, followed by a rinse in sterile distilled water (SDW). To collect second-stage juveniles (J2) for microwell assays, the surface-sterilized eggs were placed in a hatching chamber (Spectra/Mesh Nylon Filter, openings 25-μm-diam.; Spectrum Laboratories Inc., Rancho Dominguez, Calif.) set in an autoclaved dish that was placed on a rotary shaker for 3 days at 35 rpm. For some M. incognita and H. glycines assays, 25 or […] kanamycin monosulfate (Phytotechnology Laboratories, Shawnee Mission, Kans.) was added to the hatching chamber to prevent growth of bacteria. The collected J2 were then rinsed with water to remove the kanamycin monosulfate.
# (§1) Compounds for the studies were purchased from three different companies: methyl benzoate, CAS Number 93-58-3, ≥99% purity; Tween 20, CAS Number: 9005-64-5; Tween 80, CAS Number: 9005-65-6; ethyl benzoate, CAS Number: 93-89-0, natural, ≥99% purity, FCC, FG; vinyl benzoate, CAS Number: 769-78-8, ≥99% purity; n-propyl benzoate, CAS Number: 2315-68-6, 99% purity; n-butyl benzoate, CAS Number: 136-60-7, 99% purity; benzyl benzoate, CAS Number: 120-51-4, natural, ≥99% purity, FCC, FG; methyl 2-methylbenzoate, CAS Number: 89-71-4, 99% purity; methyl 2-chlorobenzoate, CAS Number: 610-96-8, ≥98% purity; methyl 2-methoxybenzoate, CAS Number: 606-45-1, 99% purity and methyl 2-nitrobenzoate, CAS Number: 606-27-9, 98% purity were purchased from Sigma-Aldrich (St. Louis, Mo.). Compounds, iso-butyl benzoate, CAS Number 120-50-3, >98% purity; n-pentyl benzoate, CAS Number: 2049-96-9, ≥98% purity; and n-hexyl benzoate, CAS Number: 6789-88-4, ≥98% purity were purchased from Alfa Aesar (Tewksbury, Mass.). The compounds methyl 3-methoxybenzoate (methyl m-anisate), CAS Number: 5368-81-0; 97% and methyl 3-methylbenzoate (methyl m-toluate), CAS Number: 99-36-5, 97% purity were purchased from TCI America (Portland, Oreg.). All chemicals were used without further purification. Deionized water (DI) containing 1% emulsifier (v/v), Tween 20 and Tween 80, at 1:1 ratio was used to make different VOCs (volatile organic compounds) water solutions and also used as blank control.
# (§2) For tests with individual compounds, the concentration of each compound was 0.1% before placement into wells; the final concentration in the wells was 0.095% after addition to eggs or J2 suspended in water. These are reported as 0.1% herein. An exception was Trial 2, M. incognita J2 activity and viability (Table 2): the final concentration was 0.1% after placement in wells. Low concentrations were selected for assays of combined compounds to determine if the combinations would increase nematotoxicity.
# (§3) Laboratory assays were conducted in 96-well polystyrene plates following general procedures described in Wen et al. (2019). Each well received approximately 35 J2 (for previously hatched J2 assays) or 35 eggs that each contained either a first-stage juvenile (J1) or a J2. The plates were covered with plastic adhesive sealing film (Excel Scientific, Inc., Victorville Calif.) and then with the plate lids. Parafilm (Bemis, Neenah, Wis.) was used to seal the plates. The nematodes were then incubated at 26° C. […] Following the counts on Day 2, the treatments were removed and the J2 rinsed twice with SDW and incubated in the second rinse. […] Two trials were conducted for each assay.
# [2] = test system: M. incognita eggs; assay: Microwell assay: eggs immersed in compounds, hatch and activity of hatched J2; assay type: in vivo, Meloidogyne incognita; conditions: 0.1%; for % Active Day 2 / % Active Day 5 / % Active Day 7: J2 hatched from immersed eggs; for Hatch Day 2 / Hatch Day 5 / Hatch Day 7: hatched J2 per well, about 35 eggs per well
# Experimental: (§4) All chemicals were used without further purification.
# (§5) These are reported as 0.1% herein.
# (§6) The nematodes were then incubated at 26° C. […] Two trials were conducted for each assay.
# (§7) The assumptions of the model were checked.
# [3] = test system: H. glycines second-stage juveniles; assay: Microwell assay: previously hatched J2 immersed in compounds, activity and viability; conditions: for % Active Day 1 / % Active Day 2: previously hatched J2 in aqueous solution; for viability at 0.1 %: Heterodera glycines, 72 h, read-out: % Viable Day 3 rinsed
# Experimental: The isolate of H. glycines race 3, originally isolated in Maryland, was maintained on soybean (Glycine max cv. ‘Essex’). As previously described (Wen, Y., et al. Plant Disease, 103: 2191-2198 (2019)), the roots were gently rubbed in water to dislodge cysts and mature females. The egg suspensions were then poured through nested sieves (#20 over /#60; pore sizes 850 μm and 250 μm diam., respectively) into a 454 g/liter sucrose solution. After 15 min, the cysts and females and cysts that floated to the top were collected, rinsed in water, and crushed with a rubber stopper on a #60 sieve (250-μm diam. pore size) that was partially submerged in distilled water. The egg suspension was washed through nested #230 over #500 sieves (pore sizes 63 μm and 25-μm diam., respectively). The eggs were collected in distilled water, and J2 hatched as described above.
# as §1, §2, §3
# Statistical analyses: The data were analyzed as either a general linear model using JMP or a generalized linear model for the best distribution to fit the residual using Proc Glimmix (Sas Institute). The assumptions of the model were checked. If not met, then appropriate statistical techniques were used so that data could met the assumptions of the models. In Sas, mean comparisons were done with Sidak adjusted p-values to hold the experiment-wise error at 0.05.
# [4] = test system: Heterodera glycines eggs; assay: Microwell assay: eggs immersed in compounds, hatch and activity of hatched J2; assay type: in vivo; conditions: 0.1%; for % Active Day 2 / % Active Day 5 / % Active Day 7: J2 hatched from immersed eggs; for Hatch Day 2 / Hatch Day 5 / Hatch Day 7: hatched J2 per well, about 35 eggs per well
# Experimental: as §4, §5, §6, §7
SMILES,% Active Day 1 [1],% Active Day 2 [1],viability at 0.1 % [1] [%],mortality at 0.1 % [1] [%],% Active Day 2 [2],% Active Day 5 [2],% Active Day 7 [2],Hatch Day 2 [2],Hatch Day 5 [2],Hatch Day 7 [2],% Active Day 1 ([3]; 0.1%),% Active Day 2 ([3]; 0.1%),viability at 0.1 % [3] [%],% Active Day 2 [4],% Active Day 5 [4],% Active Day 7 [4],Hatch Day 2 [4],Hatch Day 5 [4],Hatch Day 7 [4],also measured
"COC(=O)c1ccccc1Cl [M2CB, Methyl 2-chlorobenzoate]",0 ^f %,0 ^d %,0,100,0 ^c %,0 e %,0 ^c %,1.7 ^d,1.7 ^e,2.3 ^e,0.46 ^e %,1.6 ^g %,0.5,0 ^e %,6.4 ^de %,0 ^d %,5.4 ^cd,5.8 ^cd,5.5 ^cd,"decrease in total hatch compared with the Tween control ([2]; Day 7): ~95%; reduction in % viable J2 compared with the Tween control ([3]; 0.1%, Day 3 following water rinse): 99%; inactive J2 that hatched from the eggs ([4]; by Day 7): 100%; pest or weed control at 0.1 % ([4]; Heterodera glycines, 168 h, Day 7, read-out: egg hatch suppression compared with the Tween control): 64 to 80%"
"COC(=O)c1ccccc1C [M2MB, Methyl 2-methylbenzoate]",2.5 ^e %,0 ^d %,0,100,45.3 ^ab %,11.8 ^d %,17.4 ^b %,4.3 ^cd,6.6 ^bcd,7.6 ^cd,50.4 ^c %,52.7 ^bc %,46.4,23.8 ^cd %,24.3 ^cde %,30.9 ^ab %,6.6 ^bcd,7.6 ^bcd,7.4 ^bcd,–
"COC(=O)c1ccccc1OC [M2MOB, Methyl 2-methoxybenzoate]",5.2 ^de %,5.9 ^c %,36.8,–,35.2 ^ab %,32.5 ^cd %,13.9 ^b %,3.4 ^cd,8.4 ^bc,13.9 ^bc,73.6 ^ab %,66.3 ^ab %,59.6,48.2 ^bc %,43.0 ^abc %,19.1 ^bc %,8.7 ^abcd,11.3 ^bc,11.6 ^abc,"nonviable (killed) J2 ([1]; in vivo): killed more than half; decrease in % active J2 compared with the Tween control ([2]; J2 hatched from eggs, 7-day incubation): 86%; % Viable Day 3 rinsed ([3]; 0.1%, after Day 2 water rinse): did not cause significant reductions"
